For data set [1], the system named is MAO in the liver (substrate 5-HT). Briefly: MAO inhibition ex vivo in liver of rats, substrate 5-HT. Also on record: species or system male albino rats (Fu-SPF). The following applies: rat, 100 μmol/kg orally, 2 hrs., given in percentage of the control values. How it is done: (§1) The MAO inhibiting activity of the compounds in accordance with the invention can be determined in vitro or ex vivo using standard methods. The preparations to be tested were investigated in the tests described hereinafter, which were based on the methods of R. J. Wurtmann and J. A. Axelrod [Biochem. Pharmac. 12, 1439-41 (1963).
(§2) The compounds to be tested are investigated for the inhibition of MAO in the brain and liver of male albino rats (Fu-SPF, 100-140 g. The test compounds are administered orally as a solution or suspension in water in a dosage of 100 μmol per kilogram body weight. After 2 hrs. the animals are narcotized and decapitated. The brain (without cerebellum) and a portion of the liver are dissected out and submitted analogously to the above-described procedure for the determination of the MAO inhibiting activity, whereby the amount of enzyme used is 20 μl of a 1:20 homogenate in the case of brain and 20 μl of a 1:80 homogenate in the case of liver. The activity of the compounds is determined from a comparison of the β-values with the values for control animals treated with vehicle and is given in percentage of the control values.

The target in data set [2] is T1, MAO (substrate PEA) (Rattus norvegicus, UniProt P19643).
T1 construct: 20 μl of rat brain homogenate; from tissue; host or cells: rat brain homogenate
T1 sequence (P19643 1-520): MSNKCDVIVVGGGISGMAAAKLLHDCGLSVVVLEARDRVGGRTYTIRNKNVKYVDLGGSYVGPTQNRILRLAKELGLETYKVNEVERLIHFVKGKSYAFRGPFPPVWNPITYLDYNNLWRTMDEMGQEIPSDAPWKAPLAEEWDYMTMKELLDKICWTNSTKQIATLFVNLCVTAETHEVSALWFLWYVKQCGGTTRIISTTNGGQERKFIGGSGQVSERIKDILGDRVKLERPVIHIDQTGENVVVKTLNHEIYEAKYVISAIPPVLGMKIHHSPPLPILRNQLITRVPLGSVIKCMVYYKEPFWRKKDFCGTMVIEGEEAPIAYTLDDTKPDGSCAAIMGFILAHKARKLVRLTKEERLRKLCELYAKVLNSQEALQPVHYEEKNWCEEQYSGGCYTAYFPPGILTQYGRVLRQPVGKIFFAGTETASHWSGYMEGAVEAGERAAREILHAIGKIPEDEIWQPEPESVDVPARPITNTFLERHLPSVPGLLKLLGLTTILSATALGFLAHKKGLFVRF
Nature of the data set: MAO inhibition in vitro, rat brain homogenate, substrate 14C-labelled phenylethylamine (PEA). It counts as biochemical. Conditions: substrate PEA 2×10^-5 M, 37° C. How it is done:
as §1
(§3) Isolated rat brains are homogenized in 0.1 molar potassium phosphate buffer (pH 7.4) in the ratio 1:4 (weight/volume), the homogenate is diluted with the same buffer in the ratio 1:5 (volume/volume) and stored at -20° C. A mixture of the following composition was used for the incubation:
(§4) 100 μl of 1M phosphate buffer (pH 6.7);
(§5) 100 μl of solution of the substance to be tested in water or in 10% aqueous dimethyl sulphoxide;
(§6) 20 μl of rat brain homogenate; and as the substrate
(§7) 80 μl of ^14 C-labelled serotonin (5-HT) or ^14 C-labelled phenylethylamine (PEA), the radioactive concentration of which amounts to 100,000 decay per minute and which is used in a final concentration of 2×10^-4 M and, respectively, 2×10^-5 M.
(§8) A pre-incubation at 37° C. is effected for 30 minutes prior to the addition of the substrate. The incubation (in the presence of the substrate) is likewise effected at 37° C. and lasts for 10 minutes. The reaction is stopped by the addition of 200 μl of 2N hydrochloric acid.
(§9) In order to extract the desaminated product, the mixture is shaken for 10 minutes with 5 ml of diethyl ether or with 5 ml of n-heptane depending on whether 5-HT or PEA is used as the substrate, whereupon the mixture is centrifuged, the aqueous phase is frozen in a dry-ice bath, the organic phase is transferred into a counting glass and the radioactive concentration is determined in a β-counter.
(§10) The activity of the MAO in comparison to the control homogenates (without substance to be tested) is obtained on the basis of the β-values and the IC50 is defined as that concentration of a substance to be tested which reduces the activity of the MAO upon the substrate 5-HT or PEA by 50%.

The test system of data set [3] is MAO in the brain (substrate 5-HT). Nature of the data set: MAO inhibition ex vivo in brain of rats, substrate 5-HT. Also on record: species or system male albino rats (Fu-SPF). Conditions: rat, 100 μmol/kg orally, 2 hrs., given in percentage of the control values. How it is done: as §1, §2
Data set [4] concerns MAO in the brain (substrate PEA). Nature of the data set: MAO inhibition ex vivo in brain of rats, substrate PEA. The following applies: rat, 100 μmol/kg orally, 2 hrs., given in percentage of the control values. Also on record: species or system male albino rats (Fu-SPF). How it is done:
as §1, §2

Data set [5] deals with T2, MAO (substrate 5-HT) (Rattus norvegicus, UniProt P21396).
T2 construct: 20 μl of rat brain homogenate; from tissue; host or cells: rat brain homogenate
T2 sequence (P21396 1-526): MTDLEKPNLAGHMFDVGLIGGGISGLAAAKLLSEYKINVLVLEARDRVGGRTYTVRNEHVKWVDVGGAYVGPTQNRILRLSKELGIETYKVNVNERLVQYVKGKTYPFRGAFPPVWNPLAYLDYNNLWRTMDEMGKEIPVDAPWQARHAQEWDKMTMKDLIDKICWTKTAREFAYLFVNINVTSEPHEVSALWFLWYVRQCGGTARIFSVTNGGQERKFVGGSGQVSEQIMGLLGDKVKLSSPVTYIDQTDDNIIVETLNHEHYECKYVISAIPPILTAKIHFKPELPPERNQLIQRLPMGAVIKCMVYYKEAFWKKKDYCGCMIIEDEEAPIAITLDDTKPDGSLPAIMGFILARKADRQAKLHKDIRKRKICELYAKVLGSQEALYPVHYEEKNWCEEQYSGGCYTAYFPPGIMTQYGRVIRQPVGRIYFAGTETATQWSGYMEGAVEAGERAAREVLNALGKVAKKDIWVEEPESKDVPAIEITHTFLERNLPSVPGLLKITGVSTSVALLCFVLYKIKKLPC
Nature of the data set: MAO inhibition in vitro, rat brain homogenate, substrate 14C-labelled serotonin (5-HT). The following applies: substrate 5-HT 2×10^-4 M, 37° C. It counts as biochemical. How it is done:
as §1, §3, §4, §5, §6, §7, §8, §9, §10

Data set [6] relates to MAO in the liver (substrate PEA). Briefly: MAO inhibition ex vivo in liver of rats, substrate PEA. Also on record: species or system male albino rats (Fu-SPF). Conditions: rat, 100 μmol/kg orally, 2 hrs., given in percentage of the control values. How it is done:
as §1, §2

Data set [7] can be described thus: Preliminary oral toxicity testing in mice. The following applies: one mouse per dosage; for LLD (lowest lethal dose): death within 24 hrs.; for MTD: in vivo, survival, read-out: HTD (highest tolerated dose). It counts as in vivo. An excerpt: The toxicity of the compounds in accordance with the invention is investigated by orally administering different dosages of the dissolved or suspended compounds to mice. One mouse is used per dosage. The dosage is halved stepwise so that a dosage range of about 1.5 to the power of ten is covered. The results of this preliminary toxicity testing are reproduced in the form of two administered dosages.
The higher dosage (LLD=lowest lethal dose) led to death within 24 hrs., the lower dosage (HTD=highest tolerated dose) was survival. (Dosage data in miligram per kilogram body weight, administered orally).

Results on 17 molecules are retold here after patent publication US5292732A, “Pyrrolopyrazine derivatives” (Hoffmann-La Roche Inc., priority 1991, dated 1994).

Structures can show the parent of a compound that is named as a salt.

Turning to `CC1=NCCn2c1cc1c2-c2ccccc2CC1` [5,6,10,11-Tetrahydro-8-methylbenzo[g]pyrazino[1,2-a]indole], the “MAO inhibition, Liver, 5HT” value in data set [1] was 47%. The values for the IC50 in data set [2] and in data set [5] were above 1000 nM and 30 nM, respectively. Also, in data set [3], the “Remaining brain MAO activity, 5-HT (% of control)” value was found to be 48%. In data set [4], the “Remaining brain MAO activity (PEA), % of control” value is given as 87%. For the same molecule, in data set [6], the “Remaining liver MAO activity (PEA), % of control” value worked out at 81%.
Take `CC1NCCn2c1cc1c2-c2ccc(Cl)cc2CC1.O=C(O)/C=C/C(=O)O` (centres unmarked) [Example 31, 3-chloro-5,6,8,9,10,11-hexahydro-8-methylbenzo[g]pyrazino[1,2-a]indole fumarate (1:1)]: in data set [7], the “LLD (lowest lethal dose)” value is 1000 miligram per kilogram body wei and the MTD turned out to be 500 mg/kg.
For `CC1=NCCn2c1cc1c2-c2ccc(OC3CCCC3)cc2CC1` [3-cyclopentyloxy-5,6,10,11-tetrahydro-8-methylbenzo[g]pyrazino[1,2-a]indole], in data set [1], the “MAO inhibition, Liver, 5HT” value came to 8%. Also, the IC50 in data set [2] is 7 nM; in data set [5] it was 1 nM. The “Remaining brain MAO activity, 5-HT (% of control)” value in data set [3] is listed as 13%. Further, in data set [4], the “Remaining brain MAO activity (PEA), % of control” value turned out to be 45%. The “Remaining liver MAO activity (PEA), % of control” value in data set [6] was 50%.
With `CC1NCCn2c1cc1c2-c2ccccc2CC1.O=C(O)/C=C/C(=O)O` (centres unmarked) [Example 29, 5,6,8,9,10,11-hexahydro-8-methylbenzo[g]pyrazino[1,2-a]indole fumarate (1:1)], in data set [7], the “LLD (lowest lethal dose)” value was 625 miligram per kilogram body wei and the MTD worked out at 312 mg/kg.
As for `CC1=NCCn2cc(-c3ccccc3)cc21` [3,4-Dihydro-1-methyl-7-phenylpyrrolo[1,2-a]pyrazine], the IC50 is above 1000 nM in data set [2] and 90 nM in data set [5].
`CC1=NCCn2c1cc1c2-c2ccc(OC(C)C)cc2CC1` [5,6,10,11-tetrahydro-3-isopropoxy-8-methylbenzo[g]pyrazino[1,2-a]indole]: the “MAO inhibition, Liver, 5HT” value in data set [1] is listed as 10%. Further, the IC50 in data set [2] was found to be 14 nM; in data set [5], 0.4 nM. For the same molecule, the “Remaining brain MAO activity, 5-HT (% of control)” value in data set [3] was 8%. Also, the “Remaining brain MAO activity (PEA), % of control” value in data set [4] was 60%. Besides, the “Remaining liver MAO activity (PEA), % of control” value in data set [6] worked out at 75%.
Turning to `CC1=NCCn2c1cc1c2-c2ccc(C)cc2CC1` [5,6,10,11-tetrahydro-3,8-dimethylbenzo[g]pyrazino[1,2-a]indole], the “MAO inhibition, Liver, 5HT” value in data set [1] stood at 17%. Moreover, the IC50 in data set [2] was above 1000 nM; in data set [5], 2 nM. In data set [3], the “Remaining brain MAO activity, 5-HT (% of control)” value is recorded as 43%. For the same molecule, the “Remaining brain MAO activity (PEA), % of control” value in data set [4] is given as 82%. For the same molecule, the “Remaining liver MAO activity (PEA), % of control” value in data set [6] came to 96%.
With `CC1=NCCn2c1ccc2-c1ccc(OC2CCCC2)cc1.O=C(O)/C=C/C(=O)O` [Example 37, 6-[p-(cyclopentyloxy)phenyl]-3,4-dihydro-1-methylpyrrolo[1,2-a]pyrazine fumarate (1:1)], in data set [7], the “LLD (lowest lethal dose)” value is on record as 625 miligram per kilogram body wei and the MTD was 312 mg/kg.
As for `CC1=NCCn2c1ccc2-c1ccc(Cl)cc1` [6-(p-Chlorophenyl)-3,4-dihydro-1-methylpyrrolo[1,2-a]pyrazine], the IC50 was determined as 10000 nM in data set [2] and 350 nM in data set [5].
Consider `CC1=NCCn2c1ccc2-c1ccccc1.O=C(O)/C=C/C(=O)O` [Example 9, 3,4-dihydro-1-methyl-6-phenylpyrrolo[1,2-a]pyrazine fumarate (1:1)], for which, in data set [7], the “LLD (lowest lethal dose)” value is recorded as 625 miligram per kilogram body wei and the MTD stood at 312 mg/kg.
Regarding `CC1=NCCn2c1cc1c2-c2ccccc2CC1` [Example 10, 5,6,10,11-tetrahydro-8-methyl-benzo[g]pyrazino[1,2-a]indole fumarate (2:3)], in data set [7], the “LLD (lowest lethal dose)” value is 312 miligram per kilogram body wei and the MTD was determined as 156 mg/kg.
For the molecule `COc1ccc(-c2ccc3n2CCN=C3C)cc1` [3,4-Dihydro-6-(p-methoxyphenyl)-1-methylpyrrolo[1,2-a]pyrazine], the IC50 in data set [2] was above 1000 nM; in data set [5] it was 50 nM.
Turning to `CC1=NCCn2c1cc1c2-c2ccc(OC3CCCC3)cc2CC1.O=C(O)/C=C/C(=O)O` [Example 53, 3-cyclopentyloxy-5,6,10,11-tetrahydro-8-methylbenzo[g]pyrazino[1,2-a]indole fumarate (1:1)], in data set [7], the “LLD (lowest lethal dose)” value is given as 500 miligram per kilogram body wei and the MTD worked out at 250 mg/kg.
Taken in the same sequence, the figures for `CC1=NCCn2c1cc1c2-c2ccc(Cl)cc2CC1.O=C(O)/C=C/C(=O)O` [Example 12, 3-chloro-5,6,10,11-tetrahydro-8-methylbenzo[g]pyrazino[1,2-a]indole fumarate (1:1)] were 250 miligram per kilogram body wei and 125 mg/kg.
In the case of `CC1=NCCn2c1cc1c2-c2ccc(C3CCCCC3)cc2CC1` [3-cyclohexyl-5,6,10,11-tetrahydro-8-methylbenzo[g]pyrazino[1,2-a]indole], the values for the IC50 in data set [2] and in data set [5] were 160 nM and 2 nM, respectively.
Taken in the same sequence, the figures for `CC1=NCCn2c1ccc2-c1ccccc1` [3,4-Dihydro-1-methyl-6-phenylpyrrolo[1,2-a]pyrazine] were above 1000 nM and 300 nM.
On to `CC1=NCCn2c1ccc2-c1ccc(Cl)cc1.O=C(O)/C=C/C(=O)O` [Example 2, 6-(p-chloro-phenyl)-3,4-dihydro-1-methylpyrrolo[1,2-a]pyrazine fumarate (1:1)], for which, in data set [7], the “LLD (lowest lethal dose)” value is listed as 625 miligram per kilogram body wei and the MTD amounted to 312 mg/kg.
